From publication PMC5007552, “The hVps34‐SGK3 pathway alleviates sustained PI3K/Akt inhibition by stimulating mTORC1 and tumour growth” (The EMBO Journal, 2016)
Each block holds one compound with its values, some of them ahead of it.

Key:
[1] = test system: NDRG1 phosphorylation in ZR-75-1 cells; assay: Immunoblot of NDRG1 (Thr346) phosphorylation in breast cancer cells; format: cell-based, human; conditions: for phosphorylation of PRAS40 (Thr246) and NDRG1 (Thr346): 1 μM, 1 h, ZR-75-1, CAMA-1 (and T47D for PI3K inhibitors); for concentration reducing NDRG1 phosphorylation to basal levels: ZR-75-1 pre-treated with 1 μM MK-2206 for 5 days, hVps34 inhibitor 1 h
Description: Cell lysates were subjected to immunoblot analysis with the indicated antibodies. • ZR‐75‐1 cells cultured in serum in the absence of Akt inhibitor were treated for 1 h with the indicated concentrations of VPS34‐IN1. […] One hour prior to lysis, the cells were incubated in the presence or absence of 1 μM VPS34‐IN1. SGK3 was immunoprecipitated from lysates and subjected to in vitro kinase assay by measuring phosphorylation of the Crosstide substrate peptide in the presence of 0.1 mM [γ‐^32P]ATP in a 30 min 30°C reaction (upper panel). Kinase reactions are presented as means ± SD for triplicate reaction. Immunoprecipitates (IP) and lysates were analysed by immunoblot with the indicated antibodies. […] SGK3 was immunoprecipitated from the lysates and subjected to in vitro kinase assay as in (C). Kinase reactions are presented as means ± SD for triplicate reaction. Immunoprecipitates (IP) and lysates (lower panel) were also subjected to immunoblot analysis with the indicated antibodies. • ZR‐75‐1 cells were cultured in the absence or presence of 1 μM MK‐2206 for 5 days. Cells were then treated in the absence or presence of 0.1 μM AZD8055 or 0.1 μM rapamycin for 1 h. SGK3 was immunoprecipitated and subjected to in vitro kinase assay as in (C). Kinase reactions are presented as means ± SD for triplicate reaction. The immunoprecipitates (IP) and lysates were analysed with the indicated antibodies.
One hour prior to lysis, the cells were incubated in the presence of absence of 0.3 μM SAR405. SGK3 was immunoprecipitated from lysates and subjected to in vitro kinase assay by measuring phosphorylation of the Crosstide substrate peptide in the presence of 0.1 mM [γ‐^32P]ATP in a 30 min 30°C reaction (upper panel). Kinase reactions are presented as means ± SD for triplicate reaction. Immunoprecipitates (IP) and lysates were also analysed by immunoblot with the indicated antibodies.
(§1) The result for each kinase is presented as a mean kinase activity of the reaction taken in triplicate relative to a control reaction where the inhibitors were omitted. […] SGK3 was immunoprecipitated from cell lysates and subjected to in vitro kinase assay by measuring phosphorylation of the Crosstide substrate peptide in the presence of 0.1 mM [γ‐^32P]ATP in a 30 min 30°C reaction (upper panel). Kinase reactions are presented as means ± SD for triplicate reaction.
(§2) HEK293 cells were purchased from the American Tissue Culture Collection (ATCC). Cells were cultured in RPMI or DMEM media supplemented with 10% (v/v) foetal bovine serum, 2 mM L‐glutamine, 100 U/ml penicillin and 0.1 mg/ml streptomycin. Inhibitor treatments were carried out as described in figure legends. During 5 days inhibitor treatments, the media was changed after 72‐h intervals. The cells were lysed in buffer containing 50 mM Tris–HCl (pH 7.5), 150 mM NaCl, 1 mM EDTA, 1 mM EGTA, 1 mM sodium orthovanadate, 10 mM sodium glycerophosphate, 10 mM sodium pyrophosphate, 0.27 M sucrose, 0.1% (v/v) 2‐mercaptoethanol, 1 mM benzamidine and 0.1 mM PMSF. Lysates were clarified by centrifugation at 16,000 g for 10 min at 4°C. Protein concentration was calculated using Bradford assay (Thermo Scientific). Immunoblotting and immunoprecipitation were performed using standard procedures. The signal was developed using ECL Western Blotting Detection Kit (Amersham) on Amersham Hyperfilm ECL film (Amersham).

ZR-75-1 cells = assay: Immunoblot of Akt/mTORC1 pathway markers (Akt, PRAS40, TSC2, S6K1, Rictor, S6, 4EBP1) in ZR-75-1 cells; format: cell-based, human; conditions: for Akt phosphorylation and PRAS40 phosphorylation: ZR-75-1 in serum, hVps34 inhibitor 1 h
Description: Kinase reactions are presented as means ± SD for triplicate reaction. Immunoprecipitates (IP) were also analysed by immunoblot with the indicated antibodies. • SGK3 was knocked down in ZR‐75‐1 cells by using shRNA probe B and compared to a control shRNA probe, named sh scramble. After infection, the cells were kept for 2 days in puromycin selection media and then seeded for the experiment. The cells were treated with 1 μM MK‐2206 for 1 h or 5 days. The cell lysates were subjected to immunoblot analysis with the indicated antibodies.
The cell lysates were analysed by immunoblot using the antibody against phosphorylated Akt phosphorylation consensus motif (RxRxxpS/pT).
as §2

SGK3 [2] = molecular target: T1, SGK3 (Homo sapiens, UniProt Q96BR1); assay: Immunoprecipitated endogenous SGK3 kinase activity (Crosstide) and SGK3 phosphorylation from treated cells; format: cell-based; parameters: we immunoprecipitated endogenous SGK3 and assessed protein kinase activity; endogenous in cells; host or cells: ZR-75-1; conditions: for elevated SGK3 kinase activity, T-loop and hydrophobic motif phosphorylation induced by prolonged Class I PI3K or Akt inhibitor treatment: ZR-75-1, 5 days PI3K/Akt inhibitor, then 1 μM VPS34-IN1 or 0.3 μM SAR405 for 1 h; for basal SGK3 activity and phosphorylation: ZR-75-1 in serum, 1 μM VPS34-IN1 or 0.3 μM SAR405; for basal SGK3 activity and phosphorylation / SGK3 hydrophobic motif and T-loop phosphorylation and SGK3 kinase activity: 1 h; for SGK3 hydrophobic motif and T-loop phosphorylation and SGK3 kinase activity: ZR-75-1, 0.1 μM, with or without 5 days 1 μM MK-2206
T1 sequence (Q96BR1 1-496): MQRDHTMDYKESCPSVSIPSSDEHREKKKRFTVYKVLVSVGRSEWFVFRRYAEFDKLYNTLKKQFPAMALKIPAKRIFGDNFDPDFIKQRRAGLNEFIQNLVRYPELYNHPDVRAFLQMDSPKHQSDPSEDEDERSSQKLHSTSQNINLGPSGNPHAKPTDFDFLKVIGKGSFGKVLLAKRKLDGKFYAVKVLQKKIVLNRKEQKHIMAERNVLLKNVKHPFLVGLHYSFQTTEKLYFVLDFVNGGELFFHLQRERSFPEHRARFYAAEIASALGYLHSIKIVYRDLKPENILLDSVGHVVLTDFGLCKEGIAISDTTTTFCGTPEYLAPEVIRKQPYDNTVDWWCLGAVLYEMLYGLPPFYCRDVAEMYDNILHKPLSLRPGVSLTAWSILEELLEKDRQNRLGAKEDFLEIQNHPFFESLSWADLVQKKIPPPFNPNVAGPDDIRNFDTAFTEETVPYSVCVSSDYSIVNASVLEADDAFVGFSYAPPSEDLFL
Description: Briefly, SGK3, Akt and S6K1 were immunoprecipitated from 1 mg ZR‐75‐1 cell lysate. Immunoprecipitates were washed in sequence with lysis buffer containing high salt concentration (500 mM NaCl), lysis buffer and Buffer A (50 mM Tris pH 7.5, 0.1 mM EGTA). Kinase activity was assessed by measuring [γ‐^32P]ATP incorporation into Crosstide substrate peptide [[…]]. The reactions were carried in 40 μl total volume containing 0.1 mM [γ‐^32P]ATP (400–1,000 cpm/pmol), 10 mM magnesium acetate and 30 μM Crosstide peptide. Reactions were terminated by adding 10 μl 0.1 M EDTA and spotting 40 μl of the resulting reaction mix on P81 paper, which were immediately immersed into 50 mM orthophosphoric acid. Papers were washed at least five times in 50 mM orthophosphoric acid, rinsed in acetone and air‐dried. Radioactivity was quantified by Cerenkov counting. One unit of enzyme activity was defined as amount of enzyme that catalyses incorporation of 1 nmol of [γ‐^32P]ATP into the substrate over 1 min.

PKBa = PKBa (Homo sapiens, UniProt P31749); assay: IC50 on recombinant PKBa (Akt1); format: biochemical; conditions: Fig 5B / Appendix Fig S1B, recombinant kinase, unit inferred
PKBa, sequence (P31749 whole entry): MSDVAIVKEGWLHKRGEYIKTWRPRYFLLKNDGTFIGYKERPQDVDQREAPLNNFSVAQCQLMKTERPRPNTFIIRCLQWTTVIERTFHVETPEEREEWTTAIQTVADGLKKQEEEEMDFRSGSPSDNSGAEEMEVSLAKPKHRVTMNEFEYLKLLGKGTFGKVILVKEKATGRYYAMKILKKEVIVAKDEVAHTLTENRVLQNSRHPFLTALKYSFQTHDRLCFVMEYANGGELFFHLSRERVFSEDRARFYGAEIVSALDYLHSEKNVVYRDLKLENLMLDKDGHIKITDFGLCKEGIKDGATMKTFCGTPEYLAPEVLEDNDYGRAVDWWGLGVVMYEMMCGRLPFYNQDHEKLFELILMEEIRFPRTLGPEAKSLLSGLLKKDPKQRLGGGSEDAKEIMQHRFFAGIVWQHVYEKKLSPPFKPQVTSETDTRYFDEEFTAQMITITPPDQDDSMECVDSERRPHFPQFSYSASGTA
Description: as §1
(§3) Appendix Figure S1. […] (A) Chemical struc tures of
(§4) Sano/f_i-14g, -14i and -14n compounds. (B) IC50 values of inhibitors on indicated recombinant k inases. […]

S6K1 = S6K1 (Homo sapiens, UniProt P23443); assay: IC50 on recombinant S6K1 (p70S6K); format: biochemical; conditions: Fig 5B / Appendix Fig S1B, recombinant kinase, unit inferred
S6K1, sequence (P23443 whole entry): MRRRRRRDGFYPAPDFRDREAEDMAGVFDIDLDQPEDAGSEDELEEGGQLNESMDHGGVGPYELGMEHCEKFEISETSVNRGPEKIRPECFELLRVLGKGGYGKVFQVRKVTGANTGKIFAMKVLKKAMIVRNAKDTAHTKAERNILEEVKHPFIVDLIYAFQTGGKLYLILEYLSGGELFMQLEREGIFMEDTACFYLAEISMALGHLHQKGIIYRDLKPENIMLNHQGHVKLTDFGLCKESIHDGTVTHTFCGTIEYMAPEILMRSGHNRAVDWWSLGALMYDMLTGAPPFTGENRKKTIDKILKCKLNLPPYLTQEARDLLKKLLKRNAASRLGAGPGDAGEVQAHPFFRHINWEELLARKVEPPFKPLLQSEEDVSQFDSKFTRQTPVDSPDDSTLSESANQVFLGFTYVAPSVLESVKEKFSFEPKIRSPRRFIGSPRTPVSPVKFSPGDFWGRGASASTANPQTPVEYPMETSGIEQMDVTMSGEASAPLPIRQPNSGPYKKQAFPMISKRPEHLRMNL
Description: as §1, §3, §4

MLK3 = MLK3 (Homo sapiens, UniProt Q16584); assay: IC50 on recombinant MLK3; format: biochemical; conditions: Fig 5B / Appendix Fig S1B, recombinant kinase, unit inferred
MLK3, sequence (Q16584 whole entry, species assumed): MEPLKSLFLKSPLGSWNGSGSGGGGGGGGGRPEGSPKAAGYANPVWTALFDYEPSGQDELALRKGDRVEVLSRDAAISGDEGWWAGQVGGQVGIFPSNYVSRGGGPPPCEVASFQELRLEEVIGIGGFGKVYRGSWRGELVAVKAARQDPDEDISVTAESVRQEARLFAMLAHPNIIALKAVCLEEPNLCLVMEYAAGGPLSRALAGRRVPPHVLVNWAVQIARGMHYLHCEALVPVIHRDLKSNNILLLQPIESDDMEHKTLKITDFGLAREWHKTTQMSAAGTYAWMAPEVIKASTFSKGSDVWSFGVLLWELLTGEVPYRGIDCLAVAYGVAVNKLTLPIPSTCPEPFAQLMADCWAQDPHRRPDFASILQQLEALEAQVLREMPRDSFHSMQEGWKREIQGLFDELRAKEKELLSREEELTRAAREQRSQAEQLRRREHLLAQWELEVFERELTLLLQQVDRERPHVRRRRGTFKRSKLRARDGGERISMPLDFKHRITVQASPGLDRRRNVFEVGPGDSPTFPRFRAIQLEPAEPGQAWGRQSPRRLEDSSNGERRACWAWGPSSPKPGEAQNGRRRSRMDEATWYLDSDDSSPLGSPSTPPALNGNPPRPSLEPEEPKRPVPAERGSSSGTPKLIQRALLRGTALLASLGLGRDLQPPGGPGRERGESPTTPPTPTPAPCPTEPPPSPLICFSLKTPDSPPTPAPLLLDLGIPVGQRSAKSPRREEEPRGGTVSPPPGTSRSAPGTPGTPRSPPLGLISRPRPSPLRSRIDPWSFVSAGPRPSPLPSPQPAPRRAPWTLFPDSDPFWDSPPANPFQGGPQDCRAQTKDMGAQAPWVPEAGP
Description: as §1, §3, §4

MLK1 = MLK1 (Homo sapiens, UniProt P80192); assay: IC50 on recombinant MLK1; format: biochemical; conditions: Fig 5B / Appendix Fig S1B, recombinant kinase, unit inferred
MLK1, sequence (P80192 whole entry, species assumed): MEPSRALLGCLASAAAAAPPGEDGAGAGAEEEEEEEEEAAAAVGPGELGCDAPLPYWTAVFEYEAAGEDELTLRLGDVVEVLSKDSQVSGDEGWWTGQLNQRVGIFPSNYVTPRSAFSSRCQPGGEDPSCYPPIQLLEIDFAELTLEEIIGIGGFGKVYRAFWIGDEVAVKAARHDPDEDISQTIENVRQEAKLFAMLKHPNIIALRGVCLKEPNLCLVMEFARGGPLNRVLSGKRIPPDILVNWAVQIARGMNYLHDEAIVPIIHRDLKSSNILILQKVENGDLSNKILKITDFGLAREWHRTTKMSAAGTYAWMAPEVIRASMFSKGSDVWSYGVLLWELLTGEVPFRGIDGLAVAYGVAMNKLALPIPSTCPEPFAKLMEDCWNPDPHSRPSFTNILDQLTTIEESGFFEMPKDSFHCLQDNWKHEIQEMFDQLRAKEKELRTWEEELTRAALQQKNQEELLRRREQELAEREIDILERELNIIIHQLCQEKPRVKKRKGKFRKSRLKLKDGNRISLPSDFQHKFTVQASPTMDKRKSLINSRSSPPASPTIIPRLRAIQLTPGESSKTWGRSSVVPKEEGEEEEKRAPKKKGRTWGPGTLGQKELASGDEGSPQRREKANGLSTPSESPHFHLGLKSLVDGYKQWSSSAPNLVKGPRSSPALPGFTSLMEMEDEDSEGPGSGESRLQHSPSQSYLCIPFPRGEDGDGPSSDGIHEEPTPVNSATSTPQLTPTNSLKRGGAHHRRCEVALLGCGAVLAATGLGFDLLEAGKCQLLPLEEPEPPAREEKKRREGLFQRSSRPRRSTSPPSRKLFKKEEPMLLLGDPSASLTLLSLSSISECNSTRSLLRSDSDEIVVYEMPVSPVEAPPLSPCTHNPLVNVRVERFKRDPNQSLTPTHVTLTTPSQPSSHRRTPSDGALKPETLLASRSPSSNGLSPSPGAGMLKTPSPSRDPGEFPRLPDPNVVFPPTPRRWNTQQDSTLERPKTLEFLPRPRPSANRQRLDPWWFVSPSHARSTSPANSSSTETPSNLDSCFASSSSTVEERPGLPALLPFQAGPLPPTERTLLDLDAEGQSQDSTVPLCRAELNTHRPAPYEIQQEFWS
Description: as §1, §3, §4

SGK3 [3] = molecular target: T1, SGK3; assay: IC50 on recombinant SGK3; format: biochemical; conditions: Fig 5B / Appendix Fig S1B, recombinant kinase, unit inferred
Description: as §1, §3, §4

[4] = test system: breast cancer cells that express high levels of SGK1; assay: NDRG1 phosphorylation in breast cancer cells that express high levels of SGK1; format: cell-based; conditions: data not shown

SMILES: CS(=O)(=O)N1CCN(Cc2cc3nc(-c4cccc5[nH]ncc45)nc(N4CCOCC4)c3s2)CC1 [GDC0941]
phosphorylation of PRAS40 (Thr246) and NDRG1 (Thr346) [1]: markedly suppressed

SMILES: CC(C)(O)CNc1ncc(-c2ccnc(Nc3ccnc(Cl)c3)n2)c(CC2CC2)n1 [VPS34-IN1]
TSC2 or mTORC1 substrate phosphorylation (ZR-75-1 cells; ZR-75-1, 1 μM VPS34-IN1 alone, 1 h): did not have an effect
Akt phosphorylation and PRAS40 phosphorylation (ZR-75-1 cells): neither compound suppressed
elevated SGK3 kinase activity, T-loop and hydrophobic motif phosphorylation induced by prolonged Class I PI3K or Akt inhibitor treatment (SGK3 [2]): suppressed
basal SGK3 activity and phosphorylation (SGK3 [2]): to below control levels
concentration reducing NDRG1 phosphorylation to basal levels [1]: 1 µM

SMILES: Nc1cc(C(F)(F)F)c(-c2cc(N3CCOCC3)nc(N3CCOCC3)n2)cn1 [BKM120]
phosphorylation of PRAS40 (Thr246) and NDRG1 (Thr346) [1]: markedly suppressed

IC50 (PKBa): > 10000 nM
IC50 (S6K1): 76 nM
IC50 (MLK3): 94 nM
IC50 (MLK1): 169 nM
IC50 (SGK3 [3]): 13 nM
SMILES: Nc1[nH]nc2nc(-c3ccc(NS(=O)(=O)c4cc(Cl)ccc4F)cc3)cnc12 [14n]

SMILES: CCc1c(C(=O)NNC(=O)C(O)c2cc(F)cc(F)c2)ccc(O)c1C (stereo not shown) [EMD638683]
dose required to observe marginal reduction in NDRG1 phosphorylation [4]: 100 µM

SGK3 hydrophobic motif and T-loop phosphorylation and SGK3 kinase activity (SGK3 [2]): had no effect
SMILES: CO[C@H]1C[C@@H]2CC[C@@H](C)[C@@](O)(O2)C(=O)C(=O)N2CCCC[C@H]2C(=O)O[C@H]([C@H](C)C[C@@H]2CC[C@@H](O)[C@H](OC)C2)CC(=O)[C@H](C)/C=C(\C)[C@@H](O)[C@@H](OC)C(=O)[C@H](C)C[C@H](C)/C=C/C=C/C=C/1C [rapamycin]

elevated SGK3 kinase activity, T-loop and hydrophobic motif phosphorylation induced by prolonged Class I PI3K or Akt inhibitor treatment (SGK3 [2]): suppressed
basal SGK3 activity and phosphorylation (SGK3 [2]): to below control levels
SMILES: C[C@@H]1COCCN1c1cc(=O)n2c(n1)N(Cc1cncc(Cl)c1)[C@H](C(F)(F)F)CC2 [SAR405]
Akt phosphorylation and PRAS40 phosphorylation (ZR-75-1 cells): neither compound suppressed
concentration reducing NDRG1 phosphorylation to basal levels [1]: 0.3 µM

SGK3 hydrophobic motif and T-loop phosphorylation and SGK3 kinase activity (SGK3 [2]): suppressed
SMILES: COc1ccc(-c2ccc3c(N4CCOC[C@@H]4C)nc(N4CCOC[C@@H]4C)nc3n2)cc1CO [AZD8055]
